The source of these data is article PMC9037833 (RSC Advances, 2021).

Each structure is given as a SMILES string.

For the first experiment, the target named is T1, human A3AR (Homo sapiens, UniProt P0DMS8).
T1 sequence (P0DMS8 1-318): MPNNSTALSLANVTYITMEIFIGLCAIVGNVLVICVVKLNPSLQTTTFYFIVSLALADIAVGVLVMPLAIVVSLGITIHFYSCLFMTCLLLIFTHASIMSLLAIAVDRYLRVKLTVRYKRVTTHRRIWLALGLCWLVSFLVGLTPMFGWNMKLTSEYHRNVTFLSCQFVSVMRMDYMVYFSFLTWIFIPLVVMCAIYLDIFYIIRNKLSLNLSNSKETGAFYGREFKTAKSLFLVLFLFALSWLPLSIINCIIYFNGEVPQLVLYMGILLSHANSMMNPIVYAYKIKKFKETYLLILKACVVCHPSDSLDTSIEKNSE
The format is binding.
Settings: not given
As usually defined, the Ki is the dissociation constant of the complex between target and ligand, obtained from inhibition or displacement. High values mean a looser hold on the target, low ones a stronger hold on the target. As for `CCSc1nc(N)c2ncn([C@H]3[C@H](O)[C@H](O)[C@]4(CO)C[C@H]34)c2n1` [Compound 8b, (1R,2R,3S,4R,5S)-4-(6-Amino-2-(ethylthio)-9H-purin-9-yl)-1-(hydroxymethyl)bicyclo[3.1.0]hexane-2,3-diol], the Ki was determined as 970 ± 60 nM.

As for `CCCCCCSc1nc(N)c2ncn([C@H]3[C@H](O)[C@H](O)[C@]4(CO)C[C@H]34)c2n1` [Compound 8c, (1R,2R,3S,4R,5S)-4-(6-Amino-2-(hexylthio)-9H-purin-9-yl)-1-(hydroxymethyl)bicyclo[3.1.0]hexane-2,3-diol], the Ki is 548 ± 44 nM.

On to `Nc1nc(SC2CCCCC2)nc2c1ncn2[C@H]1[C@H](O)[C@H](O)[C@]2(CO)C[C@H]12` [Compound 8d, (1R,2R,3S,4R,5S)-4-(6-Amino-2-(cyclohexylthio)-9H-purin-9-yl)-1-(hydroxymethyl)bicyclo[3.1.0]hexane-2,3-diol], for which the affinity corresponds to a Ki of 1080 ± 90 nM.

The compound `Nc1nc(SCc2ccccc2)nc2c1ncn2[C@H]1[C@H](O)[C@H](O)[C@]2(CO)C[C@H]12` [Compound 8e, (1R,2R,3S,4R,5S)-4-(6-Amino-2-(benzylthio)-9H-purin-9-yl)-1-(hydroxymethyl)bicyclo[3.1.0]hexane-2,3-diol] registered a Ki of 49.8 ± 5.5 nM.

`Nc1nc(SCCc2ccccc2)nc2c1ncn2[C@H]1[C@H](O)[C@H](O)[C@]2(CO)C[C@H]12` [Compound 8f, (1R,2R,3S,4R,5S)-4-(6-Amino-2-(phenethylthio)-9H-purin-9-yl)-1-(hydroxymethyl)bicyclo[3.1.0]hexane-2,3-diol]: the affinity corresponds to a Ki of 291 ± 89 nM.

The compound `COc1nc(N)c2ncn([C@H]3[C@H](O)[C@H](O)[C@]4(CO)C[C@H]34)c2n1` [Compound 8g, (1R,2R,3S,4R,5S)-4-(6-Amino-2-methoxy-9H-purin-9-yl)-1-(hydroxymethyl)bicyclo[3.1.0]hexane-2,3-diol] had a Ki of 1140 ± 84 nM.

Staying with this experiment, now noted: ratio of Ki values vs 8a at hA3AR.
As to `Nc1nc(SCc2ccccc2)nc2c1ncn2[C@H]1[C@H](O)[C@H](O)[C@]2(CO)C[C@H]12` [Compound 8e, (1R,2R,3S,4R,5S)-4-(6-Amino-2-(benzylthio)-9H-purin-9-yl)-1-(hydroxymethyl)bicyclo[3.1.0]hexane-2,3-diol], the “fold higher A3AR affinity than 8a” value is on record as 30 fold.
